Patent publication US12215085B2 (priority 2019, dated 2025)

Legend:
[1] = tested on: rats with common carotid artery occlusion-induced vascular dementia; test: Step-down test, common carotid artery occlusion-induced vascular dementia rats; format: in vivo, rat; conditions: step-down method, x ± s, succinate
Source text: A rat blood vessel dementia model was made according to the references [ZHAO Xian-lin, FANG Xiu-bin, LI Dong-pei. Establishment of Vascular Dementia Model in Rats, J Chin Med Univ, 2002, 31 (3): 166-168; WANG Yong-yan, Zhang Bo-li, Editor-in-chief. Modern Chinese Medicine Clinic and Research on Vascular Dementia, People's Medical Publishing House, October 2003, First Version 214]: Chloral hydrate 0.4 g/kg was intraperitoneally injected for anesthetizing rats, and bilateral common carotid arteries were isolated and ligated. The animals were fed for 16 weeks, divided into groups on the last 7 days, and administered. The normal control group and the model group were administrated through the intragastric route with distilled water by 0.5 ml/100 g, the positive control group was administrated through the intragastric route with donepezil hydrochloride by 1.75 mg/kg (equivalent to 3.85 times the clinical daily dosage of 5 mg/70 kg), the low, medium and high-dose groups of Crystal Form A of octahydroaminoacridine succinate were administrated through the intragastric route with Crystal Form A of octahydroaminoacridine succinate by 0.7, 1.4 and 2.8 mg/kg (equivalent to 0.96, 1.92 and 3.85 times the clinical daily dosage of 8 mg/70 kg). The water maze test and the step-down test were carried out after continuous administration for 7 days, and the administration was continued during the test period. The water maze test was continuously performed for 7 days, in the first 6 days, in four different water entry points of quadrants 1, 2, 3 and 4, the time, the swimming path length, the orientation angle and the average speed of the rat reaching the platform were measured, meanwhile, the strategy for reaching the platform adopted by rats was observed, on the 7th day, the platform was removed, the number of rats crossing the platform in 2 minutes, the residence time in the platform area, the residence time in the platform quadrants, the percentage of the swimming path length in the platform area quadrants to the total swimming path length, the average speed and the orientation angle were measured. After the water maze test was finished, the step-down test was performed, and the number of electric shocks (or called as the error number) received by each rat within 5 minutes was recorded as the learning performance. The test was performed again after 24 hours, namely, the memory retention test, and the latent period for stepping-down the platform for the first time and the error number in five minutes were recorded. After the step-down test was finished, the brain was taken quickly for pathological examination, and the pathological changes of the hippocampus and the cortex were observed.

[2] = tested on: rats with beta-amyloid induced senile dementia; test: Water maze test, beta-amyloid induced senile dementia rats; format: in vivo, rat; conditions: succinate; for orientation angle for reaching the platform / speed for reaching the platform / swimming path length for reaching the platform / time for reaching the platform: x ± s
[3] = 0.7 mg/kg intragastric, 0.7 mg/kg
[4] = 1.4 mg/kg intragastric, 1.4 mg/kg
[5] = 2.8 mg/kg intragastric, 2.8 mg/kg
[6] = Day 1, 0.7 mg/kg intragastric, 0.7 mg/kg
[7] = Day 1, 1.4 mg/kg intragastric, 1.4 mg/kg
[8] = Day 1, 2.8 mg/kg intragastric, 2.8 mg/kg
[9] = Day 2, 0.7 mg/kg intragastric, 0.7 mg/kg
[10] = Day 2, 1.4 mg/kg intragastric, 1.4 mg/kg
[11] = Day 2, 2.8 mg/kg intragastric, 2.8 mg/kg
[12] = Day 3, 0.7 mg/kg intragastric, 0.7 mg/kg
[13] = Day 3, 1.4 mg/kg intragastric, 1.4 mg/kg
[14] = Day 3, 2.8 mg/kg intragastric, 2.8 mg/kg
[15] = Day 4, 0.7 mg/kg intragastric, 0.7 mg/kg
[16] = Day 4, 1.4 mg/kg intragastric, 1.4 mg/kg
[17] = Day 4, 2.8 mg/kg intragastric, 2.8 mg/kg
[18] = Day 5, 0.7 mg/kg intragastric, 0.7 mg/kg
[19] = Day 5, 1.4 mg/kg intragastric, 1.4 mg/kg
[20] = Day 5, 2.8 mg/kg intragastric, 2.8 mg/kg
[21] = Day 6, 0.7 mg/kg intragastric, 0.7 mg/kg
[22] = Day 6, 1.4 mg/kg intragastric, 1.4 mg/kg
[23] = Day 6, 2.8 mg/kg intragastric, 2.8 mg/kg

## Nc1c2c(nc3c1CCCC3)CCCC2.O=C(O)CCC(=O)O [Crystal Form K, 9-amino-1,2,3,4,5,6,7,8-octahydroacridine succinate]
[1]; [3]
  Day 1, Error number: 9.21 ± 4.52
  Day 2, Error latency: 146.89 ± 60.45 s
  Day 2, Error number: 2.49 ± 2.35
[1]; [4]
  Day 1, Error number: 8.34 ± 3.78
  Day 2, Error latency: 178.46 ± 52.77 s
  Day 2, Error number: 3.34 ± 1.49
[1]; [5]
  Day 1, Error number: 8.46 ± 4.68
  Day 2, Error latency: 192.55 ± 87.48 s
  Day 2, Error number: 3.41 ± 1.88
[2]; [6]
  adopted strategy for reaching the platform (the peripheral type and the random type %): 95.24%
  orientation angle for reaching the platform: 72.32 ± 21.32 °
  speed for reaching the platform: 18.56 ± 4.91 cm/s
  swimming path length for reaching the platform: 1196.20 ± 260.35 cm
  time for reaching the platform: 70.00 ± 14.73 s
[2]; [7]
  adopted strategy for reaching the platform (the peripheral type and the random type %): 94.82%
  orientation angle for reaching the platform: 71.28 ± 13.47 °
  speed for reaching the platform: 18.24 ± 6.88 cm/s
  swimming path length for reaching the platform: 1151.50 ± 313.31 cm
  time for reaching the platform: 70.50 ± 14.60 s
[2]; [8]
  adopted strategy for reaching the platform (the peripheral type and the random type %): 93.17%
  orientation angle for reaching the platform: 68.37 ± 20.14 °
  speed for reaching the platform: 19.42 ± 5.93 cm/s
  swimming path length for reaching the platform: 1188.50 ± 273.99 cm
  time for reaching the platform: 66.90 ± 11.45 s
[2]; [9]
  adopted strategy for reaching the platform (the peripheral type and the random type %): 79.34%
  orientation angle for reaching the platform: 62.15 ± 19.37 °
  speed for reaching the platform: 19.44 ± 9.85 cm/s
  swimming path length for reaching the platform: 796.10 ± 179.65 cm
  time for reaching the platform: 48.50 ± 15.28 s
[2]; [10]
  adopted strategy for reaching the platform (the peripheral type and the random type %): 78.13%
  orientation angle for reaching the platform: 63.27 ± 10.38 °
  speed for reaching the platform: 20.42 ± 7.24 cm/s
  swimming path length for reaching the platform: 772.80 ± 229.71 cm
  time for reaching the platform: 51.60 ± 17.26 s
[2]; [11]
  adopted strategy for reaching the platform (the peripheral type and the random type %): 80.67%
  orientation angle for reaching the platform: 66.21 ± 18.35 °
  speed for reaching the platform: 20.89 ± 6.68 cm/s
  swimming path length for reaching the platform: 770.70 ± 248.67 cm
  time for reaching the platform: 50.40 ± 17.10 s
[2]; [12]
  adopted strategy for reaching the platform (the peripheral type and the random type %): 80.31%
  orientation angle for reaching the platform: 58.23 ± 27.90 °
  speed for reaching the platform: 19.76 ± 10.49 cm/s
  swimming path length for reaching the platform: 760.80 ± 277.08 cm
  time for reaching the platform: 41.80 ± 11.68 s
[2]; [13]
  adopted strategy for reaching the platform (the peripheral type and the random type %): 77.37%
  orientation angle for reaching the platform: 54.77 ± 18.42 °
  speed for reaching the platform: 20.07 ± 7.36 cm/s
  swimming path length for reaching the platform: 737.60 ± 223.46 cm
  time for reaching the platform: 53.40 ± 23.24 s
[2]; [14]
  adopted strategy for reaching the platform (the peripheral type and the random type %): 75.48%
  orientation angle for reaching the platform: 52.93 ± 17.44 °
  speed for reaching the platform: 20.00 ± 8.73 cm/s
  swimming path length for reaching the platform: 584.50 ± 181.92 cm
  time for reaching the platform: 40.50 ± 20.47 s
[2]; [15]
  adopted strategy for reaching the platform (the peripheral type and the random type %): 70.66%
  orientation angle for reaching the platform: 57.32 ± 31.22 °
  speed for reaching the platform: 22.17 ± 13.09 cm/s
  swimming path length for reaching the platform: 685.10 ± 319.17 cm
  time for reaching the platform: 38.10 ± 22.41 s
[2]; [16]
  adopted strategy for reaching the platform (the peripheral type and the random type %): 71.34%
  orientation angle for reaching the platform: 51.48 ± 11.38 °
  speed for reaching the platform: 20.53 ± 11.21 cm/s
  swimming path length for reaching the platform: 653.50 ± 321.17 cm
  time for reaching the platform: 36.00 ± 20.42 s
[2]; [17]
  adopted strategy for reaching the platform (the peripheral type and the random type %): 68.99%
  orientation angle for reaching the platform: 50.22 ± 18.92 °
  speed for reaching the platform: 21.48 ± 9.09 cm/s
  swimming path length for reaching the platform: 544.70 ± 179.35 cm
  time for reaching the platform: 37.00 ± 17.54 s
[2]; [18]
  adopted strategy for reaching the platform (the peripheral type and the random type %): 71.53%
  orientation angle for reaching the platform: 54.22 ± 28.34 °
  speed for reaching the platform: 21.30 ± 9.86 cm/s
  swimming path length for reaching the platform: 563.90 ± 154.71 cm
  time for reaching the platform: 36.20 ± 27.16 s
[2]; [19]
  adopted strategy for reaching the platform (the peripheral type and the random type %): 69.33%
  orientation angle for reaching the platform: 53.62 ± 17.88 °
  speed for reaching the platform: 22.73 ± 17.69 cm/s
  swimming path length for reaching the platform: 562.80 ± 280.10 cm
  time for reaching the platform: 33.50 ± 21.95 s
[2]; [20]
  adopted strategy for reaching the platform (the peripheral type and the random type %): 67.59%
  orientation angle for reaching the platform: 51.22 ± 20.11 °
  speed for reaching the platform: 21.90 ± 10.66 cm/s
  swimming path length for reaching the platform: 481.50 ± 203.96 cm
  time for reaching the platform: 30.10 ± 15.85 s
[2]; [21]
  adopted strategy for reaching the platform (the peripheral type and the random type %): 68.55%
  orientation angle for reaching the platform: 52.11 ± 22.00 °
  speed for reaching the platform: 21.55 ± 6.47 cm/s
  swimming path length for reaching the platform: 513.30 ± 194.29 cm
  time for reaching the platform: 35.90 ± 24.22 s
[2]; [22]
  adopted strategy for reaching the platform (the peripheral type and the random type %): 65.72%
  orientation angle for reaching the platform: 50.65 ± 18.77 °
  speed for reaching the platform: 20.62 ± 7.36 cm/s
  swimming path length for reaching the platform: 523.30 ± 182.50 cm
  time for reaching the platform: 38.90 ± 22.26 s
[2]; [23]
  adopted strategy for reaching the platform (the peripheral type and the random type %): 60.14%
  orientation angle for reaching the platform: 48.78 ± 16.83 °
  speed for reaching the platform: 18.52 ± 7.78 cm/s
  swimming path length for reaching the platform: 540.50 ± 166.77 cm
  time for reaching the platform: 36.10 ± 22.34 s
